Like-named read-outs stand apart in the source and are kept apart here.
Assays:
Assay type in all cases: biochemical
CDK2-cycline E = CDK2-cycline E (Homo sapiens, UniProt P24941); assay: Kinase assay (radioactive phosphate incorporation), CDK2-cyclin E; details: read-out: Kinase Inhibition pIC50 CDK2-cycline E (converted)
Procedure, shortened: (§1)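 Recombinant kinases (2-4 μg) with polypeptide substrates in pH 7.4 MOPS/β-glycerophosphate buffer. Reactions started with 15 mM MgCl2 + 100 μM ATP containing [γ-32P]-ATP and incubated at 30° C. Filter-bound incorporated radioactivity counted by scintillation; compounds diluted from DMSO stocks into 10% DMSO buffer.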

GSK3b = GSK3b (Homo sapiens, UniProt P49841); assay: Kinase assay (radioactive phosphate incorporation), GSK-3b; details: read-out: Kinase Inhibition pIC50 GSK-3b (converted)
GSK3b, sequence (P49841 whole entry, species assumed): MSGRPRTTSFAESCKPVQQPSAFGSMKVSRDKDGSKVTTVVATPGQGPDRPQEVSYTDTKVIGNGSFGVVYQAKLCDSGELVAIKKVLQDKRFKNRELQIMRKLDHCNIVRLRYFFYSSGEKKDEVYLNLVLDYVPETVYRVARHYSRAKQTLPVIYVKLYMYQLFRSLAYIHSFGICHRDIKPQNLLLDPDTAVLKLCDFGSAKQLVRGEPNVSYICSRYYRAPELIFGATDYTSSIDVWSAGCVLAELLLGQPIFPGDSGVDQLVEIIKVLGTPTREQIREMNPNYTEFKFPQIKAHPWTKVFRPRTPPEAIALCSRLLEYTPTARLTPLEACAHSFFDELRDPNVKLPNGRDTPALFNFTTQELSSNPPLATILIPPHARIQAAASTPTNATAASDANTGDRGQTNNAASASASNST
Procedure, shortened: as §1

Aurora A kinase = biological target: T1, Aurora A kinase (Homo sapiens, UniProt O14965); assay: Aurora-A (human) kinase assay (Kemptide substrate); details: pIC50 is -log(IC50, M); 15 μM ATP; read-out: Kinase Inhibition pIC50 Aurora A kinase (converted)
T1 construct: purchased
T1 sequence (O14965 1-403): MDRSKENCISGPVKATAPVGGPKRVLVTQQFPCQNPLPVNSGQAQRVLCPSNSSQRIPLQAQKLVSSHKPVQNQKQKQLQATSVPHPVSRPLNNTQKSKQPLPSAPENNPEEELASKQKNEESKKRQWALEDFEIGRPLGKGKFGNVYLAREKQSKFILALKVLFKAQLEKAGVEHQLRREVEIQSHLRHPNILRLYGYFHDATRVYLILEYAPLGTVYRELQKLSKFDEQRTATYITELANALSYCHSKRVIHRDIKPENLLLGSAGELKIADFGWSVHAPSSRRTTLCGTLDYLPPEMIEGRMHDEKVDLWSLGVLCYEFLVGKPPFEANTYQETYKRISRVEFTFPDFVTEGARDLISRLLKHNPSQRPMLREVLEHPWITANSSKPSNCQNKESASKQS
Procedure, shortened: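 Radiometric filter-binding assay: commercial aurora-A kinase (5-10 ng) with 200 μM Kemptide in MOPS/EDTA pH 7.0, started with 10 mM Mg acetate and 15 μM ATP plus [γ-33P]-ATP. Incubated 40 min at room temperature, stopped with phosphoric acid, incorporated 33P counted by scintillation.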

CDK7/cyclin H = CDK7/cyclin H (Homo sapiens, UniProt P50613); assay: CDK 7 assay (CTD peptide substrate); details: read-out: Kinase Inhibition pIC50 CDK7-cyclin H (converted)
CDK7/cyclin H, sequence (P50613 whole entry): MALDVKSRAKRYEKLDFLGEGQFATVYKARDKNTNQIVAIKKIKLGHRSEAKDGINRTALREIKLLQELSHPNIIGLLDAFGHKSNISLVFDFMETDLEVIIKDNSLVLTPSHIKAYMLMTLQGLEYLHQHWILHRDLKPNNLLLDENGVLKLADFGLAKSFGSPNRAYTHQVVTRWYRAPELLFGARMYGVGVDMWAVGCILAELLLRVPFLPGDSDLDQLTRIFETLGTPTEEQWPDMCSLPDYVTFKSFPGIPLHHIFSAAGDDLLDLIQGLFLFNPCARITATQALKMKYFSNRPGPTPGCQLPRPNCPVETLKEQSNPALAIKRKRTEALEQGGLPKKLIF
CDK7/cyclin H, sequence (P51946 whole entry partner): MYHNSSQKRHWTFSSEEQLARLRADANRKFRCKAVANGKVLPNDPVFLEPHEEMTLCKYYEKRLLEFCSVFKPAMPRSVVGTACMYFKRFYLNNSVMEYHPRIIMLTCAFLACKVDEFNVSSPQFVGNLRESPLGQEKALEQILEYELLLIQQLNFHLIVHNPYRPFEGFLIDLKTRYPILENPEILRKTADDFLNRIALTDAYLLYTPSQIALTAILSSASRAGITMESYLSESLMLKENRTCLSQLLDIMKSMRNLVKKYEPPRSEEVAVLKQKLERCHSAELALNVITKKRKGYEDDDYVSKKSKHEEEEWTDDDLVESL
Procedure, shortened: (§2)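 Radiometric assay: recombinant human CDK9/cyclin T1 or CDK7/cyclin H with biotinylated CTD heptapeptide-repeat substrate, 100 μM ATP with [γ-32P]ATP, 15 mM MgCl2, MOPS pH 7.2, 45 min at 30 °C. Avidin-captured substrate filtered onto P81; 32P incorporation counted by scintillation.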

[1] = biological target: T2, protein kinases (panel of Table 4) (Homo sapiens, UniProt P24941); assay: Kinase selectivity profile, kinase inhibition IC50 (Table 4), ATP 100 μM
T2 construct: other: kinase CDK2A; ATP 100 μM; other: kinase CDK2E
Procedure: (§3) For the assays shown in Table 3, the kinases were assayed at the following ATP concentrations: SAPK4, PKBΔph, GSK3b, SAPK3, CK2, MKK1, PIM2, IKKB, ERK8, and PRK2 at 5 μM; JNK, PRAK, ROCK-II, SAPK2b, CDK2, CHK1, MSK1, CSK, P70S6K, PKA, CK1, MAPKAP-K2, SGK, PKCa, PDK1, NEK 7, and MAPKAP-K3 at 20 μM; SAPK2a, LCK, AMPK, MAPK2, DYRK1a, MAPKAP-K1a, NEK-6, NEK2a, PBK, CAMK-1, SRPK-1, JNK3, MNK2, RSK2, MNK1, PKBB, and SmMLCK at 50 μM. For the assays in Table 4 the ATP concentration was 100 μM throughout.

[2] = biological target: T3, protein kinases (panel of Table 4) (Homo sapiens, UniProt P35968); assay: as above; details: kinase VEGFR2
T3 construct: other: kinase VEGFR2; ATP 100 μM
T3 sequence (P35968 whole entry): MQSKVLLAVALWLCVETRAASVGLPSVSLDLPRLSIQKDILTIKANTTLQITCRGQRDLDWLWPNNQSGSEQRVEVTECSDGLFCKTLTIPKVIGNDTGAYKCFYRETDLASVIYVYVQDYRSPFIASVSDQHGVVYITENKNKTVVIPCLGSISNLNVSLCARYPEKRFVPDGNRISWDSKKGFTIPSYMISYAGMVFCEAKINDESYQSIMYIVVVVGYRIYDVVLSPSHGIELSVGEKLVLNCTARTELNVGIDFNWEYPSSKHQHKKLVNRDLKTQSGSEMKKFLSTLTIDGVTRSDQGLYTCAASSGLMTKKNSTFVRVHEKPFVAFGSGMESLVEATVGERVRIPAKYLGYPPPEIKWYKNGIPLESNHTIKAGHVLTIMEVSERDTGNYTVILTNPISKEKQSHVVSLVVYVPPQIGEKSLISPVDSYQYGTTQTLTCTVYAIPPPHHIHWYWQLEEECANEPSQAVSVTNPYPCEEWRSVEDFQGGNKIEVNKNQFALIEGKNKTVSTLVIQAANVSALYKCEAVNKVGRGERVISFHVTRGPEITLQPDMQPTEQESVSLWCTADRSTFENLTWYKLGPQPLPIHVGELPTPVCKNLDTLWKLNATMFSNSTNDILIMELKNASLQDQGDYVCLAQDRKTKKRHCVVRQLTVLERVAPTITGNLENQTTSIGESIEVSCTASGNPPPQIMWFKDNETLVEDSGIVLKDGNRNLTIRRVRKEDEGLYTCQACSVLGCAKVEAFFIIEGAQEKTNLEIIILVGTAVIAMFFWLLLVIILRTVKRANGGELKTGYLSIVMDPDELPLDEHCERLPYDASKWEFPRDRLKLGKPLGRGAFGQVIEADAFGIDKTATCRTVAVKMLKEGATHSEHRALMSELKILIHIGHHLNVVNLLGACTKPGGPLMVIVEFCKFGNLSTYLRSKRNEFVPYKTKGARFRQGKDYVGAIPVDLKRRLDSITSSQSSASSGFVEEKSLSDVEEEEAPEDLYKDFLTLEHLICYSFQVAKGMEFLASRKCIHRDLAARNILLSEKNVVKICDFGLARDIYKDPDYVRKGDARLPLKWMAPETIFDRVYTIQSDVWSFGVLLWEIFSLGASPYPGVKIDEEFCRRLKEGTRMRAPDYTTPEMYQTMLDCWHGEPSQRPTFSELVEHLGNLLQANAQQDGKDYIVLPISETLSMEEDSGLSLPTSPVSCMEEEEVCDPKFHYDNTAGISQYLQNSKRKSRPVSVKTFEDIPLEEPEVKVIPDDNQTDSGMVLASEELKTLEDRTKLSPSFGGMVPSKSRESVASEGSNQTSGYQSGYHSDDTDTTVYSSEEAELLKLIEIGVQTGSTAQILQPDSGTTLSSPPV
Procedure: as §3

CDK9/cyclin T1 = CDK9/cyclin T1 (Homo sapiens, UniProt P50750); assay: CDK 9 assay (CTD peptide substrate); details: read-out: Kinase Inhibition pIC50 CDK9-cyclin T1 (converted)
CDK9/cyclin T1, sequence (P50750 whole entry): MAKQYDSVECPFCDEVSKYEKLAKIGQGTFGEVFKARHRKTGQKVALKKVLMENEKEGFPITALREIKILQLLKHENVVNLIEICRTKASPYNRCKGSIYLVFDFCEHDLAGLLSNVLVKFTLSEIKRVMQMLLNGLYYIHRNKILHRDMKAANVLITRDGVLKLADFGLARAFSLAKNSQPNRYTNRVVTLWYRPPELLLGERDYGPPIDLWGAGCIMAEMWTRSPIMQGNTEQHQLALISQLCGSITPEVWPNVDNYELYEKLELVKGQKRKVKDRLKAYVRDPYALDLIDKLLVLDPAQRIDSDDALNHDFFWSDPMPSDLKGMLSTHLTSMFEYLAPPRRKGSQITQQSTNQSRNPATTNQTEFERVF
CDK9/cyclin T1, sequence (O60563 whole entry partner): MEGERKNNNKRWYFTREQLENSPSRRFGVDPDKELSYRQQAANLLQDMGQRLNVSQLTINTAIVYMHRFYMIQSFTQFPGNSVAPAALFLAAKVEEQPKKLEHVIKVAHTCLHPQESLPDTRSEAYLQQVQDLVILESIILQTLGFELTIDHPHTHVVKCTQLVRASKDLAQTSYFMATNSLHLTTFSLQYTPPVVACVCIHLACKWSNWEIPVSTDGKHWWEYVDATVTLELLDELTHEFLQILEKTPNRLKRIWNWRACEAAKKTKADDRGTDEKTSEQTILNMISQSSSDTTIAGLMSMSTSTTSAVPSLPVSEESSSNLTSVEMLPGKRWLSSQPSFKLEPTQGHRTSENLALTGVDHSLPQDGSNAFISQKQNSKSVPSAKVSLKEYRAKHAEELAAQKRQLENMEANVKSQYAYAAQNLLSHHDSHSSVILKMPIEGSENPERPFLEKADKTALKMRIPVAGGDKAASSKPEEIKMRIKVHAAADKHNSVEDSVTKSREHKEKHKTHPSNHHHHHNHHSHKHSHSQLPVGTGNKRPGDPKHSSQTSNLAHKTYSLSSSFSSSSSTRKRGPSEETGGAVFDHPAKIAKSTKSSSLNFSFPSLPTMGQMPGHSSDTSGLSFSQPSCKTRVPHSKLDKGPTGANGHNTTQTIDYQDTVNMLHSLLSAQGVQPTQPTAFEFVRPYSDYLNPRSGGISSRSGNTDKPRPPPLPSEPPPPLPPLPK
Procedure, shortened: as §2

CDK4-cyclin D1 = CDK4-cyclin D1 (Homo sapiens, UniProt P11802); assay: Kinase assay (radioactive phosphate incorporation), CDK4-cyclin D1; details: read-out: Kinase Inhibition pIC50 CDK4-cyclin D1 (converted)
CDK4-cyclin D1, sequence (P11802 whole entry): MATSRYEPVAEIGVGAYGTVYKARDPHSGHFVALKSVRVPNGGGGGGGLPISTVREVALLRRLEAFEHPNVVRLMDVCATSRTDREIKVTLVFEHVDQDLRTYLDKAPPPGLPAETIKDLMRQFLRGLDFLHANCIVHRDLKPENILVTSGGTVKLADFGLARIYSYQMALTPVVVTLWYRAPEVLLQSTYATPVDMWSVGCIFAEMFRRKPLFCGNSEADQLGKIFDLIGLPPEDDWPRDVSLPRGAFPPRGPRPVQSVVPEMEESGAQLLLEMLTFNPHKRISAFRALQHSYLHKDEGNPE
CDK4-cyclin D1, sequence (P24385 whole entry partner): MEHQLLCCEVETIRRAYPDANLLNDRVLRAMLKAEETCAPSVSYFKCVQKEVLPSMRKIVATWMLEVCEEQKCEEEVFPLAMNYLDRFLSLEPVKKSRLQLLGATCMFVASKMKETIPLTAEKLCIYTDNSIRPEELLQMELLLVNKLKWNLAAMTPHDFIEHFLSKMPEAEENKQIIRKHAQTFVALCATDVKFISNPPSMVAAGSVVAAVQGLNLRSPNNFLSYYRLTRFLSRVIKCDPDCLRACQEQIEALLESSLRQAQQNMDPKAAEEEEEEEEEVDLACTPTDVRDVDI
Procedure, shortened: as §1

[3] = kinase CDK2A, read-out: Kinase inhibition IC50, CDK2A
[4] = kinase CDK2E, read-out: Kinase inhibition IC50, CDK2E

Compound | IC50 (CDK2-cycline E) | IC50 (GSK3b) | IC50 (Aurora A kinase) | IC50 (CDK7/cyclin H) | IC50 [1, 3] | IC50 [1, 4] | IC50 [2] | IC50 (CDK9/cyclin T1) | IC50 (CDK4-cyclin D1)
CNc1nc(C)c(-c2ccnc(Nc3ccc(C)c(S(=O)(=O)N4CCOCC4)c3)n2)s1 [Compound 37, [4-(4-Methyl-2-methylamino-thiazol-5-yl)-pyrimidin-2-yl]-[4-methyl-3-(morpholine-4-sulfonyl)-phenyl]-amine] | 3160 nM | 1260 nM | 1000 nM | 3980 nM | > 10000 nM | 3000 nM | 390 nM |  | 
Cc1ccc(Nc2nccc(-c3sc(N)nc3C)n2)cc1S(=O)(=O)N1CCOCC1 [Compound 38, [4-(2-Amino-4-methyl-thiazol-5-yl)-pyrimidin-2-yl]-[4-methyl-3-(morpholine-4-sulfonyl)-phenyl]-amine] |  | 2000 nM | 501 nM | 631 nM | > 10000 nM | > 10000 nM |  | 25.1 nM | 
CNc1nc(C)c(-c2ccnc(Nc3cccc(S(C)(=O)=O)c3)n2)s1 [Compound 27, (3-Methanesulfonyl-phenyl)-[4-(4-methyl-2-methylamino-thiazol-5-yl)-pyrimidin-2-yl]-amine] | 3.16 nM | 100 nM | 316 nM | 200 nM | 7 nM | 3 nM | 44 nM | 1 nM | 158 nM
COCCNS(=O)(=O)c1cccc(Nc2nccc(-c3sc(N)nc3C)n2)c1 [Compound 55, 3-[4-(2-Amino-4-methyl-thiazol-5-yl)-pyrimidin-2-ylamino]-N-(2-methoxy-ethyl)-benzenesulfonamide] | 251 nM | 501 nM | 158 nM | 631 nM | 2100 nM | 270 nM | 240 nM | 31.6 nM | 1580 nM
CNc1nc(C)c(-c2ccnc(Nc3cccc(S(N)(=O)=O)c3)n2)s1 [Compound 19, 3-[4-(4-Methyl-2-methylamino-thiazol-5-yl)-pyrimidin-2-ylamino]-benzenesulfonamide] |  | 158 nM | 39.8 nM | 50.1 nM |  |  | 36 nM | 2.51 nM | 15.8 nM
Cc1nc(CS(=O)(=O)c2cccs2)sc1-c1ccnc(Nc2ccc(N3CCOCC3)cc2)n1 [Compound 138, {4-[4-Methyl-2-(thiophene-2-sulfonylmethyl)-thiazol-5-yl]-pyrimidin-2-yl}-(4-morpholin-4-yl-phenyl)-amine] | 3980 nM |  | 50.1 nM | 3160 nM |  |  |  |  | 
CCNc1nc(C)c(-c2ccnc(Nc3ccc(N4CCNCC4)cc3)n2)s1 [Compound 59, [4-(2-Ethylamino-4-methyl-thiazol-5-yl)-pyrimidin-2-yl]-(4-piperazin-1-yl-phenyl)-amine] | 158 nM |  | 79.4 nM | 126 nM | 630 nM | 150 nM | 46 nM | 100 nM | 39.8 nM
